Laboratory results published in ChEMBL document CHEMBL1781991, “Heteroalicyclic carboxamidines as inhibitors of inducible nitric oxide synthase; the identification of (2R)-2-pyrrolidinecarboxamidine as a potent and selective haem-co-ordinating inhibitor” (Bioorg Med Chem Lett, 2011).

Assays:
[1] = target: T1, Nitric oxide synthase, inducible (Homo sapiens, UniProt P35228); test: Inhibition of human recombinant iNOS by microtiter plate assay
[2] = target: Nitric oxide synthase 1 (Homo sapiens, UniProt P29475); test: Inhibition of human recombinant nNOS by microtiter plate assay
Nitric oxide synthase 1, sequence (P29475 whole entry): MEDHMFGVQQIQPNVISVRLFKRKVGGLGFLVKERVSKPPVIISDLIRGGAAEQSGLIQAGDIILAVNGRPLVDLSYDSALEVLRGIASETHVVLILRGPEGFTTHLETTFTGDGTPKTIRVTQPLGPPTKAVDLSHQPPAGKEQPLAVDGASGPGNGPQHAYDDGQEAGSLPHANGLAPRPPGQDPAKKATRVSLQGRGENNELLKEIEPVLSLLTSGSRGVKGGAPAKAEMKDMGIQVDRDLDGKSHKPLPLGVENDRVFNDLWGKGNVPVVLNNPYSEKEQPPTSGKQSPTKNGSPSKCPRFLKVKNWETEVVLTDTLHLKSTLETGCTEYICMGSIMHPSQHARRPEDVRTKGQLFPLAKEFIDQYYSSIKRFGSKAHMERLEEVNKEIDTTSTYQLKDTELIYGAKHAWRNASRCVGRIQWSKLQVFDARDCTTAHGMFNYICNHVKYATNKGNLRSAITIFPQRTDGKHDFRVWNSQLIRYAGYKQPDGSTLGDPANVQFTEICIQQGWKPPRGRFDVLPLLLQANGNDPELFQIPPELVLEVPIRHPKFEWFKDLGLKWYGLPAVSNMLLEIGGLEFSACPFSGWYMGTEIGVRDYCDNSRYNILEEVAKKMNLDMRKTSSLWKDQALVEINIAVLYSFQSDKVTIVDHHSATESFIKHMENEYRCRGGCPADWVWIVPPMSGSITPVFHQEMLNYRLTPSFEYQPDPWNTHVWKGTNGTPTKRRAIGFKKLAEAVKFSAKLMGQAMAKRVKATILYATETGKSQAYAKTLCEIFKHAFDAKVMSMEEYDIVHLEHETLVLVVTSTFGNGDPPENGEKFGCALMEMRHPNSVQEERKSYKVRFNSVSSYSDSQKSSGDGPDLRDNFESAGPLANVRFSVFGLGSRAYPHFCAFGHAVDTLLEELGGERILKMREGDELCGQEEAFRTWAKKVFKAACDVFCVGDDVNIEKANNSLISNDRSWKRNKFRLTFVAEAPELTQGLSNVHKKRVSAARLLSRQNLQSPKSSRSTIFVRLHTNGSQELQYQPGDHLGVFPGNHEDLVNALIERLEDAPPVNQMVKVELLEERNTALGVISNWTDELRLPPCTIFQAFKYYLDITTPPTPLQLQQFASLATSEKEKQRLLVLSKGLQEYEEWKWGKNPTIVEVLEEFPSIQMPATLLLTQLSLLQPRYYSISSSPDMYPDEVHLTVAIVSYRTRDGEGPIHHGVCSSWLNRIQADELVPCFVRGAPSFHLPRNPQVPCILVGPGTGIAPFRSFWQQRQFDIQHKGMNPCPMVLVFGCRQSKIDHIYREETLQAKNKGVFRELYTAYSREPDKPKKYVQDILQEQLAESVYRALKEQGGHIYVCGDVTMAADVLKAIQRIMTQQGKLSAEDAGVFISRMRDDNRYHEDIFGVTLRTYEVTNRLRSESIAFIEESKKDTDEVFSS

[3] = target: T2, Nitric oxide synthase 3 (Homo sapiens, UniProt P29474); test: Inhibition of human recombinant eNOS by microtiter plate assay
T2 sequence (P29474 whole entry): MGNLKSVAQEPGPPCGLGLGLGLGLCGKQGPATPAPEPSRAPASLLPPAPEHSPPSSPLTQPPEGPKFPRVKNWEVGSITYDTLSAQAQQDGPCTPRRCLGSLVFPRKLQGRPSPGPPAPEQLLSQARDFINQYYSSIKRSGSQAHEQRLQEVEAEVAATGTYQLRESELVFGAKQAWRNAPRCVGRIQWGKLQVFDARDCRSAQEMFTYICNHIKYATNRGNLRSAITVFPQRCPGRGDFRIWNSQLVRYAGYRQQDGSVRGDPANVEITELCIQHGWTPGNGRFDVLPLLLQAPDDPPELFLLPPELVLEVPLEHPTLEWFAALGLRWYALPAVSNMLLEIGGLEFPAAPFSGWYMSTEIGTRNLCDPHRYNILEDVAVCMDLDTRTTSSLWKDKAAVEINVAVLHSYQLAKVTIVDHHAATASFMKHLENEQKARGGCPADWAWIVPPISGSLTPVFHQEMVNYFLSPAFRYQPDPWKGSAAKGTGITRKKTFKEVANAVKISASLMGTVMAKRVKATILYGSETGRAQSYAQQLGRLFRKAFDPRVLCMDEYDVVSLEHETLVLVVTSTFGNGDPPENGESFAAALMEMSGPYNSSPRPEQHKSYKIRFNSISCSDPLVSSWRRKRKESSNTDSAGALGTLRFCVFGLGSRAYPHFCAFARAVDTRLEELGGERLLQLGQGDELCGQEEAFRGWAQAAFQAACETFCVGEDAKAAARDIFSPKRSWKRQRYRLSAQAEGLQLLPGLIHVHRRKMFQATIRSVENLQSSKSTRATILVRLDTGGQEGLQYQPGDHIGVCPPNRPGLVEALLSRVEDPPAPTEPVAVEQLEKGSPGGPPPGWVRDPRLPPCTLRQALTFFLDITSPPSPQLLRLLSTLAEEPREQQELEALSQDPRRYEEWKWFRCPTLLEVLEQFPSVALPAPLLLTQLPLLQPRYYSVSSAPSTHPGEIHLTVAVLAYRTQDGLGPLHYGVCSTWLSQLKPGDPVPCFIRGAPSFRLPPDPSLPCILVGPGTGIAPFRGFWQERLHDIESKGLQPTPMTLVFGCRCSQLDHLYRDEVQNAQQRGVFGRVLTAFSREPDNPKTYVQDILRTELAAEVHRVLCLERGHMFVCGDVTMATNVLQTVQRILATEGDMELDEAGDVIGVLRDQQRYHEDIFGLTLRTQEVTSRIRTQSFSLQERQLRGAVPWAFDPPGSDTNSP

[4] = target: T1, Nitric oxide synthase, inducible; test: Binding affinity to human recombinant iNOS delta 65 residue

T1 sequence (P35228 whole entry): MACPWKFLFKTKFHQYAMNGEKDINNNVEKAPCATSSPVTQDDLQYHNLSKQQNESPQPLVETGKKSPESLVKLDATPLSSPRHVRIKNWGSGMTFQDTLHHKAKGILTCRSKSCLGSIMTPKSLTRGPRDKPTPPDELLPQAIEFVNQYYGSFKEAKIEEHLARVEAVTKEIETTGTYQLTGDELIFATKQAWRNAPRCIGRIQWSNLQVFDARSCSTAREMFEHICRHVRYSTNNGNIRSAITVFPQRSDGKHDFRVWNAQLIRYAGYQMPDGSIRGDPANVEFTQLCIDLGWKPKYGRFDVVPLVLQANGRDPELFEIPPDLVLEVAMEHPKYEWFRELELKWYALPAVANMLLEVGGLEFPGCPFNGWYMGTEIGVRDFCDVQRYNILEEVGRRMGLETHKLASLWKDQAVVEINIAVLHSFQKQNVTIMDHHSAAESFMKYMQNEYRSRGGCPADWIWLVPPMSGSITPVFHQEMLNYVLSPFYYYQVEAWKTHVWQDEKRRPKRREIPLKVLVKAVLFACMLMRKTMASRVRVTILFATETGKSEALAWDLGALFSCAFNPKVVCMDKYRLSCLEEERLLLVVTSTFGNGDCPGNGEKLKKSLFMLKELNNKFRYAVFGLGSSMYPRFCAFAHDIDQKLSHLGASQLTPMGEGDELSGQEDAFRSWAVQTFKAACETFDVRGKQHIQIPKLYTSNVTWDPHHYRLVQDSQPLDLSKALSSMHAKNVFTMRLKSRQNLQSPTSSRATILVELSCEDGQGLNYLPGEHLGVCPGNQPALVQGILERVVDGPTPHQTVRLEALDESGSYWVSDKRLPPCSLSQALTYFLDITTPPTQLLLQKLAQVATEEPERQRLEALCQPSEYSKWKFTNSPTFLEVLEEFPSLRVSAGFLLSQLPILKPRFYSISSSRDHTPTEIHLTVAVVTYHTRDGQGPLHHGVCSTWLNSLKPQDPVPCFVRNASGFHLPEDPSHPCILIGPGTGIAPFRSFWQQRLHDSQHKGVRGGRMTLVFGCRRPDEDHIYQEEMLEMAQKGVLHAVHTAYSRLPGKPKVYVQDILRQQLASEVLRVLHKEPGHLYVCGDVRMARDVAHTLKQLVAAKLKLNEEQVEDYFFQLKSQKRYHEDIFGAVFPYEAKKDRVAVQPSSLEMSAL

Row | Structure (SMILES) | IC50 [1] | IC50 [2] | IC50 [3] | Kd [4]
1 | N=C(N)C1CCCNC1 (stereo not given) | 51000 nM | – | – | –
2 | N=C(N)C1CC1 [CYCLOPROPANECARBOXIMIDAMIDE] | 790 nM | – | – | –
3 | N=C(N)[C@@H]1CCN1 | 200 nM | 1700 nM | 2400 nM | –
4 | N=C(N)C1CCCN1 (stereo not given) | 700 nM | – | – | –
5 | N=C(N)[C@H]1CCN1 | 30 nM | 260 nM | 250 nM | –
6 | N=C(N)C1CCCCN1 (stereo not given) | > 100000 nM | – | – | –
7 | N=C(N)C1C=CCN1 (stereo not given) | 180 nM | – | – | –
8 | [H]/N=C(/N)C1CCCC1 [CYCLOPENTANECARBOXIMIDAMIDE] | 4400 nM | – | – | –
9 | N=C(N)C1CCNCC1 | 58000 nM | – | – | –
10 | N=C(N)C1CNC1 | 14000 nM | – | – | –

The remaining lines, values ahead:

Row | IC50 [1] | IC50 [2] | IC50 [3] | Kd [4] | Structure (SMILES)
11 | 5300 nM | – | – | – | N=C(N)C1CCCS1 (stereo not given)
12 | 120 nM | 14000 nM | 15000 nM | 630 nM | N=C(N)[C@H]1CCCN1
13 | 8900 nM | – | – | – | N=C(N)C1CCCO1 (stereo not given)
14 | 380 nM | – | – | – | N=C(N)C1CCC1 [CYCLOBUTANECARBOXIMIDAMIDE]
15 | 9400 nM | > 100000 nM | > 100000 nM | > 40000 nM | N=C(N)[C@@H]1CCCN1
